{
  "source": "paper PMC10914731",
  "about": "“Homo-BacPROTAC-induced degradation of ClpC1 as a strategy against drug-resistant mycobacteria” (Nature Communications, 2024)",
  "key": {"[1]": {"experiment": "in vivo", "type": "in vivo, BALB/cAnNCrl mice", "experimental": "The in-life experimental procedures were conducted in strict compliance with German and European animal welfare legislation in an AAALAC-accredited facility. Male BALB/cAnNCrl mice (Charles River Laboratories Research Models and Services, 97633 Sulzfeld, Germany) were used. Animals were 9 weeks old at dosing with a body weight of 21.6–24.3 g. Animals were delivered free of pathogens according to FELASA recommendations with a health certificate provided by the breeder. Upon receipt, the state of health and sex was checked. Animals acclimatized for at least 5 days before the commencement of the in-life phase. During acclimation, animals were group-housed in individually ventilated cages, on birch wood granulate bedding with species-specific enrichment (nesting material, mouse igloo, gnawing wood). During experimental conduct, animals were housed in conventional cages with elevated grid floors. Grid floor was used to avoid contamination with test item material excreted via urine and feces and subsequent reuptake during fur grooming. No bedding and enrichment were provided except a cage divider, which can be used as a shelter. Animals always had unlimited access to food and water and received a pelleted, total pathogen-free maintenance diet and tap drinking water, sterilized by filter.\nIn case of incomplete dissolution, the formulation was filtered at 40 °C (non-pyrogenic sterile-R filter, 0.2 µm). All formulations were stirred warm until administration. Actual test item content was determined bioanalytically.\nMale BALB/cAnNCrl mice (n = 3 per test item and administration route) received a bolus dose of the formulated test item(s) (1 mg/kg iv, 30 mg/kg po) at t = 0 h, and whole blood samples were collected subsequently (35 µl at 0.1 (iv) / 0.25 (po), 0.5, 1, 2, 4, 6 h; 600 µl at sacrifice after 24 h). Animals were euthanized by exsanguination in deep isoflurane anesthesia. Whole blood samples were immediately stored on ice at about 4 °C. Plasma was separated by centrifugation at approximately 10,000 × g for 5 m at +4 °C. Centrifugation of each blood sample was started within 10 m after collection. A single aliquot of at least 15 µL of plasma was prepared and immediately stored at −20 ± 5 °C.\nSample proteins were precipitated with ACN (1 + 12, v/v) containing internal standard, and supernatants analyzed by quantitative UPLC-MS/MS: Phenomenex Luna Omega C18, 2.1 × 50 mm, 1.6 µm, 40 °C, gradient between 10% - 90% ACN with 0.1% formic acid. LogD determination: Lipophilicity of the test items, expressed as chromLogD7.5, was assessed by measuring their chromatographic retention times on C18-material. The chromatographic retention versus logD7.5 values of a series of thirteen n-alkan-2-ones (2-butanone – 2-hexadecanone) served as lipophilicity calibration."}, "[2]": {"experiment": "Microsomal stability, human", "type": "in vitro ADME", "outline": "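Steps: incubate compound at 1 µmol/l with liver microsomes (0.5 mg/ml) plus 1 mM NADPH in pH 7.5 Tris-HCl buffer containing MgCl2 at 37 °C; stop aliquots over time with acetonitrile; centrifuge and measure remaining compound by LC-MS/MS; fit first-order decay and convert half-life to %Qh.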"}, "[3]": {"settings": "iv bolus, individual animals 1-3"}, "[4]": {"settings": "iv bolus, mice, Mean, BLOQ <1.00 nmol/l"}, "[5]": {"settings": "male, BALB/cAnNCrl, mouse, in vivo, iv, 0.0677 umol/kg, iv bolus, individual animals 1-3"}, "[6]": {"settings": "male, BALB/cAnNCrl, mouse, in vivo, iv, 0.0677 umol/kg, iv bolus, mice, Mean"}},
  "note": "Values joined by “and” are separate entries in the source; they are usually repeats but may differ in a detail not shown here. Identical values can stand only once. Like-named read-outs stand apart in the source and are kept apart here.",
  "data": [
    {"smiles": "CO[C@H](c1ccccc1)[C@@H]1NC(=O)[C@H](C)NC(=O)[C@H](C[C@@H](C)CO)N(C)C(=O)[C@H](Cc2cn(Cc3cn(CCOCCn4cc(Cn5cc(C[C@@H]6NC(=O)[C@H](C(C)C)NC(=O)[C@H](CC(C)C)N(C)C(=O)[C@H](C(C)C)NC(=O)[C@H]([C@H](OC)c7ccccc7)NC(=O)[C@H](C)NC(=O)[C@H](C[C@@H](C)CO)N(C)C6=O)c6ccccc65)nn4)nn3)c3ccccc23)NC(=O)[C@H](C(C)C)NC(=O)[C@H](CC(C)C)N(C)C(=O)[C@H](C(C)C)NC1=O", "note": "[Compound 6]", "values": [
      {"measurement": "Cmax", "setting": "[1]; dose-normalized, mice, 1 mg kg-1 iv bolus", "result": "1820 nM/(nmol kg-1)"},
      {"measurement": "AUC0-inf/Dose", "setting": "[1]; [3]", "result": "3260 h nM/(nmol kg-1) and 5150 h nM/(nmol kg-1) and 5870 h nM/(nmol kg-1)"},
      {"measurement": "AUC0-t/Dose", "setting": "[1]; [3]", "result": "2600 h nM/(nmol kg-1) and 5020 h nM/(nmol kg-1) and 5730 h nM/(nmol kg-1)"},
      {"measurement": "CL", "setting": "[1]; [3]", "result": "3.2 mL/min/kg and 2.8 mL/min/kg"},
      {"measurement": "CL PL QH", "setting": "[1]; [3]", "result": "5.7% and 3.6% and 3.2%"},
      {"measurement": "MRT", "setting": "[1]; [3]", "result": "5.1 h and 5.3 h"},
      {"measurement": "Plasma concentration 0.1 h", "setting": "[1]; [3]", "result": "128 nM and 127 nM and 114 nM"},
      {"measurement": "Plasma concentration 0.5 h", "setting": "[1]; [3]", "result": "47.9 nM and 51.6 nM and 58 nM"},
      {"measurement": "Plasma concentration 1 h", "setting": "[1]; [3]", "result": "44.8 nM and 45.0 nM and 44.5 nM"},
      {"measurement": "Plasma concentration 2 h", "setting": "[1]; [3]", "result": "32.5 nM and 36.4 nM and 39.6 nM"},
      {"measurement": "Plasma concentration 4 h", "setting": "[1]; [3]", "result": "17.3 nM and 22.2 nM and 13.8 nM"},
      {"measurement": "Vss", "setting": "[1]; [3]", "result": "1.0 L/kg and 0.9 L/kg"},
      {"measurement": "t1/2", "setting": "[1]; [3]", "result": "4.8 h and 4.9 h"},
      {"measurement": "Plasma concentration 6 h", "setting": "[1]; iv bolus, individual animals 1-3, BLOQ <1.00 nmol/l", "result": "11.6 nM and 14.7 nM and 20.6 nM"},
      {"measurement": "Cmax", "setting": "[1]; iv bolus, individual animals 1-3, read-out: Cmax", "result": "127 nM and 114 nM"},
      {"measurement": "AUC0-inf/Dose", "setting": "[1]; iv bolus, mice, Mean", "result": "4760 h nM/(nmol kg-1)"},
      {"measurement": "AUC0-t/Dose", "setting": "[1]; iv bolus, mice, Mean", "result": "4450 h nM/(nmol kg-1)"},
      {"measurement": "CL PL QH", "setting": "[1]; iv bolus, mice, Mean", "result": 4.1, "unit": "%"},
      {"measurement": "Plasma concentration 0.1 h", "setting": "[1]; iv bolus, mice, Mean", "result": 123, "unit": "nM"},
      {"measurement": "Plasma concentration 0.5 h", "setting": "[1]; iv bolus, mice, Mean", "result": 52.5, "unit": "nM"},
      {"measurement": "Plasma concentration 1 h", "setting": "[1]; iv bolus, mice, Mean", "result": 44.8, "unit": "nM"},
      {"measurement": "Plasma concentration 2 h", "setting": "[1]; iv bolus, mice, Mean", "result": 36.2, "unit": "nM"},
      {"measurement": "Plasma concentration 4 h", "setting": "[1]; iv bolus, mice, Mean", "result": 17.8, "unit": "nM"},
      {"measurement": "Plasma concentration 6 h", "setting": "[1]; [4]", "result": 15.6, "unit": "nM"},
      {"measurement": "Plasma concentration 24 h", "setting": "[1]; [4]", "result": 1.3, "unit": "nM"},
      {"measurement": "tmax", "setting": "[1]; male, BALB/cAnNCrl, mouse, in vivo, 0.0677 umol/kg, iv bolus, individual animals 1-3", "result": 6, "unit": "min"},
      {"measurement": "clearance", "setting": "[1]; [5]", "result": 5.1, "unit": "mL/min/kg"},
      {"measurement": "half-life", "setting": "[1]; [5]", "result": 2.7, "unit": "h"},
      {"measurement": "Cmax", "setting": "[1]; male, BALB/cAnNCrl, mouse, in vivo, iv, 0.0677 umol/kg, iv bolus, individual animals 1-3, read-out: Cmax", "result": 128, "unit": "nM"},
      {"measurement": "MRT", "setting": "[1]; male, BALB/cAnNCrl, mouse, in vivo, iv, 0.0677 umol/kg, iv bolus, individual animals 1-3, read-out: MRT", "result": 3.6, "unit": "h"},
      {"measurement": "Vd", "setting": "[1]; male, BALB/cAnNCrl, mouse, in vivo, iv, 0.0677 umol/kg, iv bolus, individual animals 1-3, read-out: Vss", "result": 1.1, "unit": "L/kg"},
      {"measurement": "clearance", "setting": "[1]; [6]", "result": 3.7, "unit": "mL/min/kg"},
      {"measurement": "half-life", "setting": "[1]; [6]", "result": 4.1, "unit": "h"},
      {"measurement": "Cmax", "setting": "[1]; male, BALB/cAnNCrl, mouse, in vivo, iv, 0.0677 umol/kg, iv bolus, mice, Mean, read-out: Cmax", "result": 123, "unit": "nM"},
      {"measurement": "MRT", "setting": "[1]; male, BALB/cAnNCrl, mouse, in vivo, iv, 0.0677 umol/kg, iv bolus, mice, Mean, read-out: MRT", "result": 4.7, "unit": "h"},
      {"measurement": "Vd", "setting": "[1]; male, BALB/cAnNCrl, mouse, in vivo, iv, 0.0677 umol/kg, iv bolus, mice, Mean, read-out: Vss", "result": 1, "unit": "L/kg"},
      {"measurement": "Vd", "setting": "[1]; male, BALB/cAnNCrl, mouse, in vivo, iv, 1 mg/kg, mice, 1 mg kg-1 iv bolus, read-out: VSS", "result": 0.95, "unit": "L/kg"},
      {"measurement": "clearance", "setting": "[1]; male, BALB/cAnNCrl, mouse, in vivo, iv, 1 mg/kg, plasma clearance, mice, 1 mg kg-1 iv bolus", "result": 3.73, "unit": "mL/min/kg"},
      {"measurement": "half-life", "setting": "[1]; male, BALB/cAnNCrl, mouse, in vivo, iv, 1 mg/kg, plasma, mice, 1 mg kg-1 iv bolus", "result": 3.33, "unit": "h"},
      {"measurement": "Microsomal Stability Human QH", "setting": "[2]; Human", "result": 69.600, "unit": "%"},
      {"measurement": "Microsomal Stability Human", "setting": "[2]; clearance in microsomes", "result": 70, "unit": "%Qh"}
    ]}
  ]
}
